From publication PMC10498358 (2023)

Experiments:
[1] = tested on: pApU (poly A–poly U) (RNA, polymer) A/U; test: UV thermal denaturation at 260 nm; settings: I = 0.05 M (sodium cacodylate); sodium cacodylate buffer, pH 7.0; r = [compound]/[RNA] = 0.3; error ±0.5 °C; per base
[2] = tested on: p(dGdC)2 (poly dGdC–poly dGdC) (DNA, polymer) GC; test: fluorescence titration, Scatchard fit; settings: I = 0.05 M (sodium cacodylate); sodium cacodylate buffer, pH 7.0; polynucleotide concentration as phosphates; n fixed at 0.2; per base
[3] = tested on: p(dAdT)2 (poly dAdT–poly dAdT) (DNA, polymer) AT; test: fluorescence titration, Scatchard fit; settings: I = 0.05 M (sodium cacodylate); sodium cacodylate buffer, pH 7.0; polynucleotide concentration as phosphates; n fixed at 0.2; per base
[4] = tested on: pApU (poly A–poly U) (RNA, polymer) A/U; test: fluorescence titration, Scatchard fit; settings: I = 0.05 M (sodium cacodylate); sodium cacodylate buffer, pH 7.0; polynucleotide concentration as phosphates; n fixed at 0.2; per base

`COc1c2cc(N)cc1Cc1cc(C(C)(C)C)cc(c1OCc1nccn1C)Cc1cc(NC(=O)CCCc3ccc4ccc5cccc6ccc3c4c56)cc(c1OC)Cc1cc(C(C)(C)C)cc(c1OCc1nccn1C)C2` was tested, and the ΔTm [1] was “+1 °C”, the “log K” value [2] was 5.7 and the “log K” value [3] was 7.4. The “log K” value [4] was 6.4.
In the case of `COc1c2cc(NC(=O)CCCc3ccc4ccc5cccc6ccc3c4c56)cc1Cc1cc(C(C)(C)C)cc(c1OCc1nccn1C)Cc1cc(NC(=O)CCCc3ccc4ccc5cccc6ccc3c4c56)cc(c1OC)Cc1cc(C(C)(C)C)cc(c1OCc1nccn1C)C2`, the ΔTm [1] is reported as -1 °C, the “log K” value [2] is reported as 6.9 and the “log K” value [3] is reported as 6.6. The “log K” value [4] was 7.2.
